Data as given in US20150075790A1, “OILFIELD BIOCIDE” (SCHLUMBERGER TECHNOLOGY CORPORATION, priority 2013, published 2015).

What was measured:
Assay type in all cases: physicochemical
[1] = Breaking schedule of crosslinked guar gel with oxidizer (breaker), viscosity at 66° C.; details: shear rate 100 sec^-1, 66° C. (150° F.)
Procedure: Two samples were evaluated to determine the impact of the MGO on the breaking schedule of a guar solution. The viscosity of each sample was measured at a shear rate of 100 sec^−1 while aging at 66° C. (150° F.) in the presence of an oxidizer (a breaker) to determine the effect 2-oxo-aldehyde such as MGO has on gel stability. The data is shown graphically in FIG. 4.

[2] = system: bacteria or other biological agents known to degrade such fluids; experiment: Viscosity of guar fluid after aging at 25° C. in a non-sterile environment (biocidal activity on a guar system); details: relatively dilute concentrations; period of at least 6 days
Text: For purposes herein, aging of a fluid (e.g., a solution or mixture) in a non-sterile environment for purposes of determining the inhibition of biological degradation of the fluid may include the steps of preparing and characterizing a fluid in a non-sterile environment followed by allowing the fluid to age in the non-sterile environment (or non-sterile container) which is, or which has been in fluid communication with an external environment such that the fluid has been exposed to the ambient environment which inherently contains bacteria or other biological agents known to degrade such fluids at room temperature (i.e., 25° C.), followed by characterizing the aged fluid in essentially the same way under the same conditions using the same method utilized to characterize the fluid initially. […] The biocidal activity of a 2-oxo-aldehyde having 3 or more carbon atoms such as methylglyoxal on a guar system was evaluated. […] Samples were maintained at room temperature and their viscosities were measured directly after their preparation (in a non-sterile environment) and then again determined after the different periods of time aging at 25° C. in a non-sterile environment as indicated. The viscosity of sample B was determined initially and then again after 1, 2, 3, and 6 days of aging at 25° C. in a non-sterile environment, i.e., in a covered beaker on a lab bench. […]

[3] = system: biological degradation of the concentrated guar fluids; experiment: Viscosity of highly concentrated guar fluids (water in water emulsion) after aging and dilution; details: ~200 ppt guar
Procedure: The efficacy of 2-oxo-aldehyde such as MGO as a biocide was investigated on highly concentrated guar fluids (˜200 ppt) produced as a water in water emulsion. Comparative sample G and sample H were prepared without and with MGO respectively. After dilution of the concentrated fluids (1 part of sample to 4 parts of water) their rheological properties were measured after 0, 1, 2, 3, and 4 days. The data are shown graphically in FIG. 5. […] After three days of aging at 25° C., comparative sample G (without MGO) presents a much lower viscosity than its initial value at day 0, i.e. the fluid in comparative sample G has been degraded.

[4] = Vortex closure time of boron-crosslinked guar solution, initially and after aging
Procedure: The effects of the biocide on cross linking were evaluated. It is known that chemical contamination may have a detrimental impact on the cross linking of guar and other polymers. The impact of 2-oxo-aldehyde such as MGO on guar crosslinking was evaluated using the vortex closure time of a solution of guar. Vortex closure time is determined by charging a portion of the gel in a blender and measuring the time required for the vortex produced upon initiation of mixing the solution in the blender to close. […] In other words, a non-crosslinked or minimally crosslinked mixture with have an infinite vortex closure time. The higher the level of crosslinking, the shorter the vortex closure time once mixing is initiated.
A comparative sample E and a sample F were prepared by mixing 0.5 g of guar in 99.5 g water and mixing in the blender. Sample F further included 0.4 g MGO solution (0.16 g of MGO). No vortex closure occurred while mixing the uncrosslinked samples. Next, an amount of a Boron based crosslinking agent was added to each of the mixing samples and the initial vortex closure time was measured as shown in Table 4. The vortex closure time was then measured after 4 days of aging at room temperature (25° C.) in a non-sterile environment, and then again after 6 days of aging at 25° C. […] The data also confirm that biological degradation has a pronounced effect on cross-linking.

For `CC(=O)C=O` [MGO, methylglyoxal], the “Impact on the breaking schedule of a guar gel (FIG. 4)” value [1] was “does not have a significant impact on the breaking schedule”, the “Effectiveness in reducing biological degradation of the guar fluid” value [2] was “effective in reducing biological degradation” and the “Prevention of biological degradation of concentrated guar fluids” value [3] was “has prevented biological degradation”. For the same molecule, the “Impact on the vortex closure time” value ([4]; 160 mg/L (0.4 gpt), even after several days) was “does not have any impact on the vortex closure time” and the “Interference with crosslinking of the polymer” value ([4]; boron based crosslinking agent, guar) was “does not prevent or interfere with the crosslinking”.
